Test results: patent publication US9376436B2, “2-(pyridin-2yl)-1, 7-diaza-spiro [4.4] nonane-6-one compound as voltage-gated sodium channels modulators” (CONVERGENCE PHARMACEUTICALS LIMITED, priority 2011, dated 2016)
Counter-ions that a name gives are not always drawn. Like-named read-outs stand apart in the source and are kept apart here.

Molecular target: T1, hNaV1.7 (Homo sapiens, UniProt Q15858)
T1 construct: expressed in transfected cells; host or cells: HEK293
Assay: QPatch NaV1.7 assay (whole-cell patch clamp, QPatch16x)
Assay type: cell-based
Details: HEK293-hNaV1.7 cells
How it was run: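 HEK293 cells expressing hNaV1.7 recorded by automated whole-cell patch clamp (CsF internal, pH 7.3). Peak currents from 20 ms steps to 0 mV measured at holding potentials of −90 mV and V1/2 SSI; four-point cumulative concentrations, 120 s each, Hill fits gave pIC50 at each potential.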

[1] = holding voltage V1/2 SSI (half of channels inactivated), read-out: QP Nav1.7 SSI vhalf pIC50 (converted)
[2] = holding voltage −90 mV (most channels closed), read-out: QP Nav1.7 −90 mV pIC50 (converted)

T1 sequence (Q15858 whole entry): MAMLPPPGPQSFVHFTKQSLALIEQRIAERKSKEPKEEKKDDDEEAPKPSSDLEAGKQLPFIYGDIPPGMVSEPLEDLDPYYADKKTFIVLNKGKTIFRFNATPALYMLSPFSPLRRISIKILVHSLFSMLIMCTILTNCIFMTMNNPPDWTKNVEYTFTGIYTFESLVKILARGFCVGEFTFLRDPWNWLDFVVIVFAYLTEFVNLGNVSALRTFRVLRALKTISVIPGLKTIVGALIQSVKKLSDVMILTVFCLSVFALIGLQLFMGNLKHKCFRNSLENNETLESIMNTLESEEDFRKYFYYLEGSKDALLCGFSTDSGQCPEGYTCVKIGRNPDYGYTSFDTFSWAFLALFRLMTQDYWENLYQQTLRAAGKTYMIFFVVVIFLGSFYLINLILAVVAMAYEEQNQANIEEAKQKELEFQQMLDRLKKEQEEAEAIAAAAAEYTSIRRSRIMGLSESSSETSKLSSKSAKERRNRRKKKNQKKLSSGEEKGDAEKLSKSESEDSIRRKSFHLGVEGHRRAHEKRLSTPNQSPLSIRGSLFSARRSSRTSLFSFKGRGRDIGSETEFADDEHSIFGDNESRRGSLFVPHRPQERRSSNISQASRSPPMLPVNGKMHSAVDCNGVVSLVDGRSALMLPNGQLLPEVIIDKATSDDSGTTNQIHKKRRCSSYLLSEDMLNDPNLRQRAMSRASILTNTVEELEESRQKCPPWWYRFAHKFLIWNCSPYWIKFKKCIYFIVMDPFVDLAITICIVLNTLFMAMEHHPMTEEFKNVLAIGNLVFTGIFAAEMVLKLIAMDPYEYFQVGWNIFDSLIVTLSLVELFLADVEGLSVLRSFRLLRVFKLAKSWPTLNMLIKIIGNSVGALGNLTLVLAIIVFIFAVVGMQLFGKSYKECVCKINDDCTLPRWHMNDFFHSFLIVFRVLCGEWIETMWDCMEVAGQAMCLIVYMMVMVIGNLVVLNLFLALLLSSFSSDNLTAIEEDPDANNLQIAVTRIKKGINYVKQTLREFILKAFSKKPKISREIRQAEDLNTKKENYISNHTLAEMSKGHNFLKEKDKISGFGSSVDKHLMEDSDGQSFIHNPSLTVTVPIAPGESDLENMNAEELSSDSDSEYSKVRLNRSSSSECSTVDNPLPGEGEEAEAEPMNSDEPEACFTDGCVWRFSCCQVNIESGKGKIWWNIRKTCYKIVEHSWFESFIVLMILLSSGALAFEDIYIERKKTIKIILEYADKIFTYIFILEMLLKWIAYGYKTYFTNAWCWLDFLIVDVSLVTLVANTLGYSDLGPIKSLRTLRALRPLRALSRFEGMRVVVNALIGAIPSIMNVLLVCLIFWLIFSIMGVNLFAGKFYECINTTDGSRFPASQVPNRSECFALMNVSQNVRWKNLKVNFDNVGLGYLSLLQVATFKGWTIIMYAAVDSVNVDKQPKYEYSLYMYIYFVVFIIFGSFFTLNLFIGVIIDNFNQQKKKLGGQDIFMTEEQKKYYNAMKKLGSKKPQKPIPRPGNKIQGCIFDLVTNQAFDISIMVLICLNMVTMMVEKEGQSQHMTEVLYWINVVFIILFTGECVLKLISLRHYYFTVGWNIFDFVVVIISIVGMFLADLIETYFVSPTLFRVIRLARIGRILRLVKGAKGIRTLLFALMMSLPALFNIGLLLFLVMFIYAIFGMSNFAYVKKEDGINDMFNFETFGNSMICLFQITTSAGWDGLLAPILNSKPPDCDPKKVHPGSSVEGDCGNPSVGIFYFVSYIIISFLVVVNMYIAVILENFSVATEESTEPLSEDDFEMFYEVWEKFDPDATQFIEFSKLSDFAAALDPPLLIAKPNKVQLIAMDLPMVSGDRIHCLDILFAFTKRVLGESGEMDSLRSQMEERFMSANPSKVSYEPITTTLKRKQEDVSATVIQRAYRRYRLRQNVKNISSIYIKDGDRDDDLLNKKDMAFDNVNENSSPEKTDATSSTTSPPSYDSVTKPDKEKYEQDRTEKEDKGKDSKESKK

Row | IC50 [1] [µM] | IC50 [2] [µM] | SMILES
1 | 0.2 | 1 | Cc1cc(-c2ccc(C(F)(F)F)cc2)cc([C@H]2CC[C@]3(CCCNC3=O)N2)n1 [Example 100, (2R,5S)-2-[6-Methyl-4-(4-trifluoromethyl-phenyl)-pyridin-2-yl]-1,7-diaza-spiro[4.5]decan-6-one hydrochloride]
2 | 10 | 12.6 | Cc1cc(-c2ccc(C(F)(F)F)cc2)cc([C@@H]2CC[C@@]3(CCCNC3=O)N2)n1 [Example 101, (2S,5R)-2-[6-Methyl-4-(4-trifluoromethyl-phenyl)-pyridin-2-yl]-1,7-diaza-spiro[4.5]decan-6-one hydrochloride]
3 | 2 | 25.1 | CCOc1ccc(F)c(-c2cc(C)nc([C@@H]3CC[C@]4(CCNC4=O)N3)c2)c1 [Example 102, (2S,5R)-2-[4-(5-Ethoxy-2-fluoro-phenyl)-6-methyl-2-pyridyl]-1,7-diazaspiro[4.4]nonan-6-one hydrochloride]
4 | 0.126 | 2.51 | CCOc1ccc(F)c(-c2cc(C)nc([C@H]3CC[C@]4(CCNC4=O)N3)c2)c1 [Example 103, (2R,5R)-2-[4-(5-Ethoxy-2-fluoro-phenyl)-6-methyl-2-pyridyl]-1,7-diazaspiro[4.4]nonan-6-one hydrochloride]
5 | 0.158 | 1.58 | CCOc1ccc(F)c(-c2cc(C)nc([C@H]3CC[C@@]4(CCNC4=O)N3)c2)c1 [Example 104, (2R,5S)-2-[4-(5-Ethoxy-2-fluoro-phenyl)-6-methyl-2-pyridyl]-1,7-diazaspiro[4.4]nonan-6-one hydrochloride]
6 | 2 | 25.1 | CCOc1ccc(F)c(-c2cc(C)nc([C@@H]3CC[C@@]4(CCNC4=O)N3)c2)c1 [Example 105, (2S,5S)-2-[4-(5-Ethoxy-2-fluoro-phenyl)-6-methyl-2-pyridyl]-1,7-diazaspiro[4.4]nonan-6-one hydrochloride]
7 | 2 | 5.01 | CCOc1ccc(F)c(-c2ccnc([C@@H]3CC[C@]4(CCCNC4=O)N3)c2)c1 [Example 106, (2S,5S)-2-[4-(5-Ethoxy-2-fluoro-phenyl)-pyridin-2-yl]-1,7-diaza-spiro[4.5]decan-6-one hydrochloride]
8 | 0.2 | 1.58 | CCOc1ccc(F)c(-c2ccnc([C@H]3CC[C@]4(CCCNC4=O)N3)c2)c1 [Example 107, (2R,5S)-2-[4-(5-Ethoxy-2-fluoro-phenyl)-pyridin-2-yl]-1,7-diaza-spiro[4.5]decan-6-one hydrochloride]
9 | 0.0631 | 1.26 | CCOc1ccc(F)c(-c2ccnc([C@H]3CC[C@@]4(CCCNC4=O)N3)c2)c1 [Example 108, (2R,5R)-2-[4-(5-Ethoxy-2-fluoro-phenyl)-pyridin-2-yl]-1,7-diaza-spiro[4.5]decan-6-one hydrochloride]
10 | 1 | 2 | CCOc1ccc(F)c(-c2ccnc([C@@H]3CC[C@@]4(CCCNC4=O)N3)c2)c1 [Example 109, (2S,5R)-2-[4-(5-Ethoxy-2-fluoro-phenyl)-pyridin-2-yl]-1,7-diaza-spiro[4.5]decan-6-one hydrochloride]
11 | 15.8 | 79.4 | O=C1NCC[C@]12CC[C@@H](c1cc(-c3ccc(C(F)(F)F)cc3)ccn1)N2 [Example 114, (2S,5R)-2-[4-[4-(Trifluoromethyl)phenyl]-2-pyridyl]-1,7-diazaspiro[4.4]nonan-6-one hydrochloride]
12 | 2.51 | 31.6 | O=C1NCC[C@]12CC[C@H](c1cc(-c3ccc(C(F)(F)F)cc3)ccn1)N2 [Example 115, (2R,5R)-2-[4-[4-(Trifluoromethyl)phenyl]-2-pyridyl]-1,7-diazaspiro[4.4]nonan-6-one hydrochloride]
13 | 10 | 79.4 | O=C1NCC[C@]12CC[C@@H](c1cc(-c3cccc(OC(F)(F)F)c3)ccn1)N2 [Example 116, (2S,5R)-2-[4-[3-(Trifluoromethoxy)phenyl]-2-pyridyl]-1,7-diazaspiro[4.4]nonan-6-one hydrochloride]
14 | 0.398 | 7.94 | O=C1NCC[C@]12CC[C@H](c1cc(-c3cccc(OC(F)(F)F)c3)ccn1)N2 [Example 117, (2R,5R)-2-[4-[3-(Trifluoromethoxy)phenyl]-2-pyridyl]-1,7-diazaspiro[4.4]nonan-6-one hydrochloride]
15 | 7.94 | 50.1 | O=C1NCC[C@@]12CC[C@H](c1cc(-c3cccc(OC(F)(F)F)c3)ccn1)N2 [Example 118, (2R,5S)-2-[4-[3-(Trifluoromethoxy)phenyl]-2-pyridyl]-1,7-diazaspiro[4.4]nonan-6-one hydrochloride]
16 | 3.98 | 31.6 | O=C1NCC[C@@]12CC[C@@H](c1cc(-c3cccc(OC(F)(F)F)c3)ccn1)N2 [Example 119, (2S,5S)-2-[4-[3-(Trifluoromethoxy)phenyl]-2-pyridyl]-1,7-diazaspiro[4.4]nonan-6-one hydrochloride]
17 | 0.794 | 20 | CCOc1ccc(F)c(-c2cc(C)nc([C@@H]3CC[C@]4(CCN(C)C4=O)N3)c2)c1 [Example 120, (2S,5R)-2-[4-(5-Ethoxy-2-fluoro-phenyl)-6-methyl-pyridin-2-yl]-7-methyl-1,7-diaza-spiro[4.4]nonan-6-one hydrochloride]
18 | 0.631 | 12.6 | CCOc1ccc(F)c(-c2cc(C)nc([C@H]3CC[C@]4(CCN(C)C4=O)N3)c2)c1 [Example 121, (2R,5R)-2-[4-(5-Ethoxy-2-fluoro-phenyl)-6-methyl-pyridin-2-yl]-7-methyl-1,7-diaza-spiro[4.4]nonan-6-one hydrochloride]
19 | 3.16 | 7.94 | COc1cc(C(F)(F)F)ccc1-c1cc(C)nc([C@@H]2CC[C@@]3(CCN(C)C3=O)N2)c1 [Example 122, (2S,5S)-2-[4-[2-Methoxy-4-(trifluoromethyl)phenyl]-6-methyl-2-pyridyl]-7-methyl-1,7-diazaspiro[4.4]nonan-6-one hydrochloride]
20 | 39.8 | 251 | CCOc1cc(-c2cc(C)nc([C@@H]3CC[C@]4(CCN(C)C4=O)N3)c2)ccc1F [Example 123, (2S,5R)-2-[4-(3-Ethoxy-4-fluoro-phenyl)-6-methyl-2-pyridyl]-7-methyl-1,7-diazaspiro[4.4]nonan-6-one hydrochloride]

Row | SMILES | IC50 [1] [µM] | IC50 [2] [µM]
21 | O=C1NCCC[C@@]12CC[C@@H](c1cc(-c3ccc(F)cc3)ccn1)N2 [Example 110, (2S,5R)-2-[4-(4-Fluoro-phenyl)-pyridin-2-yl]-1,7-diaza-spiro[4.5]decan-6-one hydrochloride] | 10 | 251
22 | O=C1NCCC[C@@]12CC[C@H](c1cc(-c3ccc(F)cc3)ccn1)N2 [Example 111, (2R,5R)-2-[4-(4-Fluoro-phenyl)-pyridin-2-yl]-1,7-diaza-spiro[4.5]decan-6-one hydrochloride] | 63.1 | 200
23 | O=C1NCCC[C@]12CC[C@H](c1cc(-c3ccc(F)cc3)ccn1)N2 [Example 112, (2R,5S)-2-[4-(4-Fluoro-phenyl)-pyridin-2-yl]-1,7-diaza-spiro[4.5]decan-6-one hydrochloride] | 3.98 | 39.8
24 | O=C1NCCC[C@]12CC[C@@H](c1cc(-c3ccc(F)cc3)ccn1)N2 [Example 113, (2S,5S)-2-[4-(4-Fluoro-phenyl)-pyridin-2-yl]-1,7-diaza-spiro[4.5]decan-6-one hydrochloride] | 50.1 | 200
